According to paper PMC2719696, “Kinetics and Cellular Site of Glycolipid Loading Control the Outcome of Natural Killer T Cell Activation” (Immunity, 2009):

What was measured:
mCD1d [1] = target: T1, mCD1d (Mus musculus, UniProt P11609); experiment: Loading of mCD1d tetramers with or without 0.05% Triton X-100, staining of hybridoma DN3A4.1-2; type: binding; conditions: 0.05% Triton X-100, 24 hr at 37°C
T1 sequence (P11609 22-305 limits assumed): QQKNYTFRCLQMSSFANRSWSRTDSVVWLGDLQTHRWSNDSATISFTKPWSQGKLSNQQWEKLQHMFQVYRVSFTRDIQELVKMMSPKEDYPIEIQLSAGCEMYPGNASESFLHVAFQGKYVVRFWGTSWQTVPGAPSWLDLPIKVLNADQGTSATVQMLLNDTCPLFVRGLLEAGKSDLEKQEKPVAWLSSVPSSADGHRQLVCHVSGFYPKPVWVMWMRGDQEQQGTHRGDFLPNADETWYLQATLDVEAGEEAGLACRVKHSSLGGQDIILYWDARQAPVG
T1 sequence (P01887 21-119 partner): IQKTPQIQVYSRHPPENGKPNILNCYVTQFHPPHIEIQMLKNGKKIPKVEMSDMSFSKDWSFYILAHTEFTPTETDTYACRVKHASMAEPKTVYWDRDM
From the text: The efficient loading of CD1 molecules with lipids such as αGalCer-C26:0 is known to involve cofactors that enhance the transfer of lipids from micelles or membranes into the antigen-binding groove of the CD1 protein. The best known of these cofactors are resident intracellular lipid binding and transfer proteins including those belonging to the saposin family, GM2 activator proteins, and Niemann-Pick type C1 and C2 proteins ([Zhou et al., 2004; Sagiv et al., 2006; Yuan et al., 2007; Schrantz et al., 2007]). Most of these are known to have detergent-like activities that facilitate solubilization of lipids and their exchange between hydrophobic binding sites. […]
Figure 5 Lack of Detergent-like Cofactor Dependence of Th2 Cell-Type Cytokine-Biasing αGalCer Analogs (A) Glycolipids were incubated for 24 hr at 37°C with murine CD1d proteins in the absence (top row) or presence (bottom row) of 0.05% Triton X-100. […] After washing, DN32.D3 iNKT hybridoma cells were added and supernatant concentrations of IL-2 were determined after an additional 14 hr of incubation. […]
Recombinant CD1d proteins were produced and assembled into tetramers for staining as previously described ([Forestier et al., 2007]). […] All samples were analyzed with the FACSCalibur flow cytometer (BD Biosciences).

mCD1d [2] = target: T1, mCD1d; experiment: In vitro CD1d loading assay with immobilized mCD1d, saposins or Triton X-100, DN32.D3 hybridoma IL-2 readout; type: biochemical; conditions: for effect of all four saposins on mCD1d loading: saposins 10 μg/ml
Experimental: Figure 5 Lack of Detergent-like Cofactor Dependence of Th2 Cell-Type Cytokine-Biasing αGalCer Analogs (A) Glycolipids were incubated for 24 hr at 37°C with murine CD1d proteins in the absence (top row) or presence (bottom row) of 0.05% Triton X-100. The resulting complexes were assembled as tetramers and used for staining mouse iNKT hybridoma DN3A4.1-2. The dashed line histograms show background staining with unloaded tetramers, and the bold histograms show staining with glycolipid loaded tetramers. (B) The same analysis as in (A) except with human CD1d tetramers, which were also used for DN3A4.1-2 staining. (C) Glycolipids at various concentrations were incubated with immobilized mCD1d protein for 2 hr in pH 7.0 or pH 5.0 buffers with no additives (medium) or in the same buffers containing the indicated purified recombinant saposins (10 μg/ml) or Triton X-100 (0.05%). After washing, DN32.D3 iNKT hybridoma cells were added and supernatant concentrations of IL-2 were determined after an additional 14 hr of incubation. All results shown (A, B, and C) were representative of at least two independent experiments.
To extend these observations to a more physiological model, we tested the effects of purified recombinant saposin A, B, C, and D proteins on loading of αGalCer analogs.
Recombinant murine CD1d proteins at 4 μg/ml in 50 μl PBS were coated on the surfaces of microtiter plate wells for 2 hr at 37°C and then washed with PBS for removal of unbound proteins. Subsequently, various concentrations of glycolipids in 0.1 M sodium phosphate buffer (pH 7.0) or 0.1 M sodium citrate buffer (pH 5.0) containing 150 mM NaCl were incubated with or without 0.05% Triton X-100 or recombinant purified human saposins A, B, C, or D at 10 μg/ml for another 2 hr at 37°C. Saposins were produced and purified as described ([Yuan et al., 2007]). After extensive washing with PBS and media, 5 × 10^4 murine iNKT hybridoma DN32.D3 cells were added in 200 μl of complete medium and incubated at 37°C for 14 hr. Supernatants were analyzed for murine IL-2 by capture ELISA.

SMILES	effect of Triton X-100 on formation of mCD1d tetramers that bind iNKT cell TCRs (mCD1d [1])	effect of all four saposins on mCD1d loading (mCD1d [2]; acidic pH)	effect of all four saposins on mCD1d loading (mCD1d [2]; neutral pH)	cofactor dependence of mCD1d loading (mCD1d [2]; recombinant mCD1d, iNKT hybridoma IL-2 readout)
CCCCCCCCCCCCCCCCCCCCCCCC(=O)NC(COC1OC(CO)C(O)C(O)C1O)C(O)C(O)CCCCCCCCCCCCCC (centres unmarked) [αGalCer-C24:0]	clear enhancing effect			
CCCCCCCCCCCCCCC(O)C(O)C(COC1OC(CO)C(O)C(O)C1O)NC(=O)CCCCCCCCC (centres unmarked) [αGalCer-C10:0]		reduced mCD1d loading	only modest enhancement	
CCCCCCCCCCCCCCCCCCCCCCCCCC(=O)NC(COC1OC(CO)C(O)C(O)C1O)C(O)C(O)CCCCCCCCCCCCCC (centres unmarked) [αGalCer-C26:0, reference compound]	clear enhancing effect			dependent either on the presence of detergent (0.1% Triton X-100) or on the presence of a purified saposin
